Square brackets hold non-standard residues; d marks the D form. Peptide text beside a SMILES is read from it. * marks the point of attachment. Trp(1-Me) = Cn1cc(C[C@H](N)C(=O)O)c2ccccc21; Hyp = O=C(O)[CH]1C[CH](O)CN1; Phg = N[CH](C(=O)O)c1ccccc1; pGlu = O=C1CC[CH](C(=O)O)N1; Pip = O=C(O)[C@@H]1CCCCN1; ΔPro = O=C(O)[CH]1C=CCN1; Cbz = O=C(OCc1ccccc1)*; Aze = O=C(O)[CH]1CCN1; Boc = CC(C)(C)OC(=O)*
Columns and labels:
[1] = Analgesic activity, test not given (Hot Plate and Writhing Tests used); format: in vivo; conditions: test and dose not stated
Text: (§1) In the following examples will first of all be given the data necessary for synthesis of the compounds according to the present invention. There will then be given data regarding their pharmacological activity, using methods widely known to be valid. In particular, for the pressure tests, spontaneously hyper-tensive rats were used (SHR from the company Charles River), operated in such a way as to enable pressure to be read even when the animals were awake and free to move. In order to evaluate the analgesic activity, the Hot Plate and Writhing Tests were used. For the anti-inflammatory effect the test of carraginine edema was used. Finally, for immuno-modulating activity the evaluation of the stimulation of growth of human lymphocites in culture was resorted to, after the addition of specific antigens.

[2] = tested on: spontaneously hyper-tensive rats (SHR from the company Charles River); assay: Pressure test in awake spontaneously hypertensive rats (anti-hypertensive activity); format: in vivo
Text: as §1

carraginine edema = assay: Carrageenin edema test (anti-inflammatory effect); format: in vivo; conditions: dose not stated
Text: as §1

[3] = tested on: human lymphocites in culture; assay: Stimulation of growth of human lymphocytes in culture after addition of specific antigens (immuno-modulating activity); format: cell-based
Text: as §1, with “antigens. The results obtained for each synthesized compound are given at the end of each example.” for “antigens.”

[4] = Hot Plate test (analgesic activity); format: in vivo
Text: as §1, with “antigens. The results obtained for each synthesized compound are given at the end of each example.” for “antigens.”

[5] = Writhing test (analgesic activity); format: in vivo; conditions: dose not stated
Text: as §1, with “antigens. The results obtained for each synthesized compound are given at the end of each example.” for “antigens.”

| Compound | anti-hypertensive effect ([2]; dose not stated) | anti-inflammatory effect (carraginine edema) | immune response [3] | further results |
| --- | --- | --- | --- | --- |
| COC(=O)C(Cc1c[nH]c2ccccc12)NC(=O)C(CC(C)C)NC(=O)C1CC(O)CN1C(=O)OCc1ccccc1 (stereo not drawn) [compound 16, Z-(L)-Hyp-(L)-Leu-(L)-TrpOMe] (Cbz-[Hyp]-Leu-Trp-OMe; configuration not given here) | bland |  |  | analgesic effect [1]: modest |
| Z-(L)-Pyr-(L)-Leu-(L)-TrpOMe [compound 19] | slight | fair |  |  |
| Z-(L)-Pro-(L)-Ala-TrpH [compound 2] | comparable to that of compound 1 |  | increased, but to a lesser extent than in the previous compound |  |
| COC(=O)C(Cc1c[nH]c2ccccc12)NC(=O)C(CC(C)C)NC(=O)C1C=CCN1C(=O)OC(C)(C)C (stereo not drawn) [compound 13, Boc-\/^3,4-(L)-Pro-(L)-Leu-(L)-TrpOMe] (Boc-[ΔPro]-Leu-Trp-OMe; configuration not given here) | slightly anti-hypertensive |  | slightly increases |  |
| COC(=O)[C@@H](NC(=O)[C@H](C)NC(=O)[C@@H]1CCCN1C(=O)OCc1ccccc1)c1ccccc1 [compound 5, Z-(L)-Pro(L)-Ala-(L)-PhgOMe] (Cbz-Pro-Ala-[Phg]-OMe) |  |  |  | anti-hypertensive effect ([2]; 8 mg/Kg i.p.): bland; analgesic effect using the Hot Plate test ([4]; dose not stated): moderate |
| (L)-Pyr-(L)-Leu-(S)-CytOMe [compound 25] | bland |  |  | analgesic effect [1]: weak |
| Boc-(L)-Mep-(L)-Leu-(L)-TrpOMe [compound 12] | bland | reduction of the inflammatory response |  |  |
| Z-(L)-Pyr-(L)-Leu-(S)-CypOMe [compound 21] | slight |  | good |  |
| Z-(S)-Dhi-(L)-Leu-(L)-TrpOMe [compound 14] | bland reduction |  |  | analgesic effect [1]: moderate |
| (L)-Pyr-Gly-(L)-Pme [compound 23] |  |  | good | reduction of contorsions during the Writhing test [5]: 80%; analgesic effect [1]: excellent; anti-hypertensive effect ([2]; 8 mg/Kg i.p.): good |
| Z-(L)-Pyr-(L)-Leu-(S)-CytOMe [compound 20] | bland | fair |  |  |
| Z-(L)-Pro-(L)-Ala-CytH [compound 3] |  |  |  | anti-hypertensive effect ([2]; 8 mg/Kg i.p.): bland |
| COC(=O)[C@H](Cc1cn(C)c2ccccc12)NC(=O)[C@H](C)NC(=O)[C@@H]1CCCN1C(=O)OCc1ccccc1 [compound 7, Z-(L)-Pro-(L)-Ala-(1)-Me-(L)-TrpOMe] (Cbz-Pro-Ala-[Trp(1-Me)]-OMe) |  |  |  | anti-hypertensive effect ([2]; 2 mg/Kg i.v.): good; reduction in pressure ([2]; 2 mg/Kg i.v.): 10% |
| Z-(L)-Pro-(L)-Ala-(L)-Pme [compound 6] |  | rather weak | more consistent | reduction of contorsions during the Writhing test [5]: 70%; analgesic effect [1]: good; anti-hypertensive effect ([2]; 2 mg/Kg i.v.): good; pressure reduced ([2]; 2 mg/Kg i.v., after one hour): approximately 25%; extension of time in the Hot Plate test ([4]; dose not stated): 25% |
| COC(=O)C(NC(=O)CNC(=O)C1CCC(=O)N1)c1ccccc1 (stereo not drawn) [compound 22, (L)-Pyr-Gly-(L)-PhgOMe] ([pGlu]-Gly-[Phg]-OMe; configuration not given here) |  | very good | increase | reduction of edema (carraginine edema): 70%; anti-hypertensive effect ([2]; 4 mg/Kg i.p.): excellent; pressure values reduced ([2]; 4 mg/Kg i.p.): 20% |
| COC(=O)[C@H](Cc1c[nH]c2ccccc12)NC(=O)[C@H](CC(C)C)NC(=O)c1ccco1 [compound 8, 2-Fur-(L)-Leu-(L)-TrpOMe] |  | slight | strongly stimulated even with small doses of peptide | anti-hypertensive effect ([2]; 4 mg/Kg i.v.): slight |
| COC(=O)C(Cc1c[nH]c2ccccc12)NC(=O)C(CC(C)C)NC(=O)C1CCN1C(=O)OCc1ccccc1 [compound 17, z-(S)-Aze-(L)-Leu-(L)-TrpOMe] (Cbz-[Aze]-Leu-Trp-OMe; configuration not given here) | slight | bland |  |  |
| Z-(L)-Pro-(L)-Ala-(L)-OmtOMe [compound 4] |  |  | slightly increased | anti-hypertensive effect ([2]; 8 mg/Kg i.v.): bland |
| (S)-Tfc-(L)-Leu-(L)-TrpOMe [compound 18] | bland |  | moderate |  |
| COC(=O)[C@H](Cc1c[nH]c2ccccc12)NC(=O)[C@H](CC(C)C)NC(=O)[C@@H]1CCCCN1C(=O)OCc1ccccc1 [compound 15, Z-(L)-Pip-(L)-Leu-(L)-TrpOMe] (Cbz-[Pip]-Leu-Trp-OMe) |  | consistent | slight increase | anti-hypertensive effect ([2]; 2 mg/Kg i.v.): good; reduction in pressure ([2]; 2 mg/Kg i.v.): up to 30% |
| (L)-Pyr-Gly-(L)-CypOMe [compound 24] | bland | moderate |  |  |
| Z-(L)-Pro-(L)-Ala-(L)-CypOMe [compound 11] | slight | moderate |  |  |
| COC(=O)[C@H](Cc1c[nH]c2ccccc12)NC(=O)[C@H](CC(C)C)NC(=O)c1ccc[nH]1 [compound 9, 2-Pyrrolyl-(L)-Leu-(L)-TrpOMe] | slight | bland reduction |  |  |
| COC(=O)C(Cc1c[nH]c2ccccc12)NC(=O)C(CC(C)C)NC(=O)C1CCCN1C.Cl (stereo not shown) [compound 10, N-Me-(L)-Pro-(L)-Leu-(L)-TrpOMe.HCl] |  |  | slightly increased | analgesic effect [1]: low; anti-hypertensive effect ([2]; 2 mg/Kg i.v.): excellent; reduction in pressure ([2]; 2 mg/Kg i.v.): 15-20% |
| Z-(L)-Pro-(L)-Ala-(S)-CytOEt [compound 1] |  |  |  | response of lymphocytes stimulated by phytohemoagglutinine (PHA) ([3]; PHA stimulation): increases; anti-hypertensive effect ([2]; 4 mg/Kg i.p.): good; duration of the anti-hypertensive effect ([2]; 4 mg/Kg i.p.): maintained for a number of hours; pressure values reduced ([2]; 4 mg/Kg i.p.): 15-20%; pain killing effect under the Hot Plate test ([4]; 4 mg/Kg i.p.): slight |

Reference: patent publication EP0503044B1, “PEPTIDE COMPOUNDS OF LAEVOROTATORY AMINO ACIDS AND RING MOLECULES, AND THERAPEUTICAL APPLICATIONS THEREOF” (POLIFARMA S.p.A., priority 1990, dated 1992)
